Biological target: T1, PIT/PPIR system (Streptomyces coelicolor, UniProt Q9ADN3)
T1 construct: pMF156/pTWIN in CHO cells, PPIR-SEAP or GFP reporter
T1 sequence (Q9ADN3 1-252): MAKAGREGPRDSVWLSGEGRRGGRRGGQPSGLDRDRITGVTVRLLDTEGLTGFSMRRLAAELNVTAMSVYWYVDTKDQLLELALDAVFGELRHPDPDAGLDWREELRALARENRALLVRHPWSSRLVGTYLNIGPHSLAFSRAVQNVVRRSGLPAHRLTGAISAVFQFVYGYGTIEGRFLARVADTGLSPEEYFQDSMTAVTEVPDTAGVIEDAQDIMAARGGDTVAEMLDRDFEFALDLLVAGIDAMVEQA
Assay: SEAP reporter assay, CHO-K1 cotransfected with pMF156 (PIT) and pMF172 (PPIR-SEAP)
Format: cell-based
Procedure: PIT, the fusion protein of Pip and the VP16 C-terminal transactivation domain of Herpes simplex (Triezenberg et al., 1988, Genes Dev. 2, 718-729) was constructed by amplifying the S. coelicolor Pip from pGemT::Epip4 with oligos:
Chinese hamster ovary cells (CHO-K1, ATCC: CCL 61), Baby hamster kidney cells (BHK-21, ATCC: CRL-8544), and HeLa cells (ATCC: CRL-7923) as well as stable cell lines CHO-PIT1, CHO-PIT2, CHO-TWIN195, CHO-TWIN1108 and CHO-PIT1-SEAP were cultured as described before (Fussenegger et al., 1998, Nat. Biotechnol. 16,468-472) in the presence of appropriate antibiotics: G418 400 μg/ml; zeocin 100 μg/ml. Optimized CaPO4 protocols were used for high efficiency transient transfection of all cell lines (id). Transient transfected cells were routinely analyzed after 48 h for GFP or SEAP expression using fluorescence microscopy and p-nitrophenolphosphate-based light absorbance timecourse, respectively, as described before (Fussenegger et al., 1998, Nat. Biotechnol. 16, 468-472; Berger et al., 1988, Gene 66, 1-10 b). For construction of stable CHO-PIT and CHO-TWIN cell lines, CHO-K1 was cotransfected either with pMF156 or pTWIN1 and pSV2neo carrying the G418 resistance gene. CHO-PIT1-SEAP was constructed by cotransfection of pMF172 and pZeoSV2 (Invitrogen). For assessment of dose-response characteristics of PPIR -regulated gene expression, CHO-PIT1-SEAP were cultured at cell densities of 150,000/ml for 48 at various PI concentrations. The mixed populations were cloned using FACS-mediated single-cell-sorting (FACStar^Plus; Beckton Dickinson). Gel retardation assay were performed as described (Salah-Bey et al., 1995, supra) using Pip purified from an overproducing strain of E. coli. Pip (0.02 pmol) was titrated with a range of antibiotic concentrations in a reaction volume of 20 μl. Protein solutions were pre-incubated at room temperature for 15 min. in the absence or presence of PI or its derivative quinupristin in a buffer containing 10 mM Tris (pH 7.8), 10 mM MgCl2, 300 mM NaCl, 2 mM DTT and 10% glycerol. An EcoRI-HindII PPTR fragment (0.02 pmol) containing three Pip binding sites (radiolabelled using α-^32 P)dATP was added and incubated for 15 min. To minimize nonspecific protein binding and increase protein stability, 2 μg of poly dIdC and 20 μg BSA were included in the incubation mix. Protein-DNA complexes were separated on 5% polyacrylamide,TBE gels and visualized by autoradiography.
Five different sources of pristinamycin were used: The two therapeutic forms Pyostacin™ and Synercid™, pristinamycin discs, and the single compounds pristinamycin I (PI) and pristinamycin II (PII). Pyostacin™ pills (500 mg) were ground in a mortar and solubilized in DMSO or water at a stock concentration of 50 mg/ml. Synercid™ (RP 59500; Lot Nr. CB06253) was provided by Aventis in injection-ready vials containing 500 mg lyophilized antibiotic which was reconstituted in 5 ml of 5% glucose solution and frozen at -20° C. Individual pristinamycin compounds PI and PII (identical to virginiamycin M1 (VM1); Sigma ref. V2753) were solubilized in DMSO at a concentration of 50 mg/ml and kept at -20° C. Antibiotic discs containing 15 μg pristinamycin or virginiamycin (bioMerieux, ref. 54552; bioMerieux, ref. 54612) were soaked in 1 ml cell culture medium at 4i C for up to 24 h. […] The concentration of individual streptogramin components was calculated based on their fixed 70:30 ratio (w/w; PII/VM1 /dalfopristin: PI/VS1 /quinupristin). […]

pristinamycin I [PI]
SEAP readout (slope of the p-nitrophenolphosphate-based light absorbance time courses) (+PI (2 μg/ml), 48 hr post transfection, CHO + pMF156 + pMF172): 0.03 ± 0.002
Downregulation of PIT/PPIR-mediated SEAP expression (CHO-K1, 2 μg/ml): effective downregulation
SEAP Production (%) (inducer 2 μg/ml, assayed 48 hr later, no inducer = 100): 7.90 ± 1.2%

— patent US6287813A, “Antibiotic-based gene regulation system” (Cistronics Cell Technology GmbH, priority 1999, dated 2001)
